Data from patent EP0105584B1, “Perfluorocarbon emulsions and their preparation and use in therapy” (ADAMANTECH, INC., priority 1982, dated 1984).
Marks after values point to notes of the source that are not given here.

Tests used:
MCa-11 mammary carcinoma [1] = assay: In vivo chemosensitization with cyclophosphamide; parameters: species or system BALB/c mice; details: cyclophosphamide 75 mg/kg i.p. single dose
Procedure: The combined use of PFC dispersion (Dispersion B) and high oxygen breathing for enhancement of the anti-tumor effects of cyclophosphamide ("CYC") was investigated with respect to treatment of MCa-11 mammary carcinoma transplanted into the right hind leg of female BALB/c mice. The tumors were allowed to grow to 2 mm at which point the animals were treated as described in Table VII below, wherein the cyclophosphamide, obtained commercially, was dissolved in distilled water and injected in a volume equal to […] of body weight. Three to six animals per treatment group were used in the study. On the day of treatment and three to five times per week thereafter, the tumors were sized with vernier calipers.

[2] = Distribution of drug between PFC phase and aqueous phase of Dispersion B; assay type: physicochemical; details: for Drug in emulsion÷ drug in aqueous phase: Dispersion B, blending for 30 minutes
Procedure: (§1) In the course of in vitro chemosensitization studies in the LAN-1 human neuroblastoma spheroid system, conducted substantially as described in Example 4 above except for Adriamycin as the chemotherapeutic agent, it was noted that the anti-tumor activity of the Adriamycin was inhibited by the PFC material (PFC Dispersion B). […] This was tested by dissolving in water a radio-labelled analogue of Adriamycin, C^14-Daunomycin, adding Dispersion B (or in separate experiments, the neat PFC component of Dispersion B), blending for 30 minutes, separating the PFC phase from the aqueous phase, and determining the distribution of drug between the phases. Table VIII below reports the results of the experiment and similar experiments with three other drugs. It will be noted that the more lipophilic Duanomycin preferentially partitioned into the PFC phase whereas the other, less lipophilic, drugs favored the aqueous phase. It was concluded that although the PFC may have an inhibitory effect on less lipophilic drugs, the delivery of lipophilic drugs will be enhanced by the PFC.
The partitioning of the Vincristine between the PFC and aqueous phases of Dispersion B was first studied in comparison with Daunomycin, as reported in Table IX below, where "PFC" means the PFC phase of Dispersion B.

[3] = Octanol:water partition coefficient
[4] = tested on: LAN-1 human neuroblastoma spheroid system; assay: In vitro chemosensitization with Adriamycin, spheroids; assay type: cell-based; details: in the presence of PFC Dispersion B
Procedure: as §1

MCa-11 mammary carcinoma [5] = assay: In vivo chemosensitization with Vincristine; parameters: species or system BALB/c mice; details: Vincristine 1.5 mg/kg i.p. single dose, or 20 ml/kg Dispersion B i.v. with carbogen breathing, each alone
Procedure: The MCa-11 mammary carcinoma was transplanted into the thigh of BALB/c mice and grown to a diameter of 6 mm, at which time the mice were treated. Control mice received an injection of saline, while Vincristine treatment consisted of a single dose of 1.5 mg/kg of Vincristine administered intraperitoneally. PFC treatment consisted of an i.v. injection of 20 ml/kg of Dispersion B, followed by two hours of breathing carbogen (95% 02/5% C02), and injection of saline of Vincristine as before, followed by another two hours of carbogen breathing.

[6] = tested on: NB-100 neuroblastoma multicellular tumor spheroids; assay: In vitro chemosensitization with methotrexate, MTS; assay type: cell-based, human; details: 5 µM MTX for 24 hours
P388 leukemia = details: cited from earlier work
[7] = 1 hour, PFC phase of Dispersion B

O=P1(N(CCCl)CCCl)NCCCO1 (stereo not drawn) [Cyclophosphamide, cyclophosphamide]
Days to grow 6 mm (MCa-11 mammary carcinoma [1]; interpolated from the tumor growth curves): 17.8 days | Growth delay (MCa-11 mammary carcinoma [1]; relative to untreated controls): 5.3

COCC(O)Cn1ccnc1[N+](=O)[O-] (stereo not drawn) [Misonidazole]
Drug in emulsion÷ drug in aqueous phase [2]: 0.04 | logP [3]: -0.367

COc1cccc2c1C(=O)c1c(O)c3c(c(O)c1C2=O)C[C@@](O)(C(=O)CO)C[C@@H]3O[C@H]1C[C@H](N)[C@H](O)[C@H](C)O1 [Adriamycin]
anti-tumor activity [4]: inhibited

CC[C@]1(O)C[C@H]2CN(CCc3c([nH]c4ccccc34)[C@@](C(=O)OC)(c3cc4c(cc3OC)N(C=O)[C@H]3[C@@](O)(C(=O)OC)[C@H](OC(C)=O)[C@]5(CC)C=CCN6CC[C@]43[C@@H]65)C2)C1 [Vincristine]
PFC/H2O (ratio of concentrations in the emulsion and the aqueous phases) [2, 7]: 2.69 | PFC/H2O (ratio of concentrations in the emulsion and the aqueous phases) ([2]; 3 hours, determined via bioassay in the LAN-1 neuroblastoma spheroid system): 9.10^c | effect on tumor growth (MCa-11 mammary carcinoma [5]): no effect on tumor growth | logP [3]: 2.83

CN(Cc1cnc2nc(N)nc(N)c2n1)c1ccc(C(=O)N[C@@H](CCC(=O)O)C(=O)O)cc1 [MTX, methotrexate]
Drug in emulsion÷ drug in aqueous phase [2]: 0.07 | Lipophilicity index (partition coefficient of the drug between octanol and water): 0.014 | D8, number of days required for the MTS to grow 8 units or 200 µm beyond their original diameter [6]: 9.52 days | MTS sizes ([6]; Day 0, 1 unit=25 µm): 9.83±0.17 microscope units | MTS sizes ([6]; Day 1): 9.74 microscope units | MTS sizes ([6]; Day 4): 10.69 microscope units | MTS sizes ([6]; Day 6): 11.76 microscope units | MTS sizes ([6]; Day 8): 13.93 microscope units | MTS sizes ([6]; Day 12): 18.93 microscope units | MTS sizes ([6]; Day 15): 21.83 microscope units

FC(F)(F)C(F)(F)C(F)(F)C(F)(F)C(F)(F)C(F)(F)C(F)(F)C(F)(F)Br [perfluorooctyl bromide]
local toxicity (P388 leukemia; mouse, in vivo): local toxic reactions in the peritoneal cavity were observed | improvement in therapy (survival time) (P388 leukemia; oxygen-saturated neat compound injected 24 hours before graded doses of whole body X-rays, versus salt solution): failed to show a significant improvement in therapy

COc1cccc2c1C(=O)c1c(O)c3c(c(O)c1C2=O)C[C@@](O)(C(C)=O)C[C@@H]3O[C@H]1C[C@H](N)[C@H](O)[C@H](C)O1 [Daunomycin]
PFC/H2O (ratio of concentrations in the emulsion and the aqueous phases) [2, 7]: 1.23 | PFC/H2O (ratio of concentrations in the emulsion and the aqueous phases) ([2]; 3 hours, PFC phase of Dispersion B): 3.80 | Drug in emulsion÷ drug in aqueous phase [2]: 3.77 | logP [3]: -0.102

NCCCNCCSP(=O)(O)O [WR-2721, S - 2 - (3 - aminopropylamino) ethylphosphorothioic acid]
Drug in emulsion÷ drug in aqueous phase [2]: 0.05 | logP [3]: -2.7
